Among the test systems are A498; COLO 205; DU-145; HCT-116; HCT-15; HOP-92; HT-29; IGROV-1; KM12; MDA-MB-435; MOLT-4; NCI-H226; NCI/ADR-RES; RPMI-8226; SF-268; SK-MEL-5; SNB-19; UACC-62; Malme-3M; SR.
Test in all cases: DTP human tumour cell line panel, 48 h

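Dose response: 5 concentrations. Exposure: 48 h. Format: 96-well plates. Endpoint: linear interpolation; highest concentration if not reached. Here, GI50 denotes the concentration required for 50% inhibition of growth.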 Calls of active or inactive are those of the source. Rule as the data show it: active = GI50 up to about 1.1 µM and inactive = higher.

As to `Cc1ccsc1/C=N/Nc1nc2ccccc2s1`, the GI50 is 2.35 µM (inactive) with A498; 35.2 µM (inactive) in the test on COLO 205; 26.8 µM (inactive) in the test with DU-145; 11.2 µM (inactive) in the test with HCT-116; 50.5 µM in the test with HCT-15; 13.4 µM (inactive) in the test with HOP-92. Also, the GI50 was 34.6 µM (inactive) in the test on HT-29; 11 µM (inactive) with IGROV-1; 24.2 µM (inactive) in the test with KM12; 70.1 µM (inactive) with MDA-MB-435; 16.2 µM (inactive) in the test on MOLT-4; 19.4 µM (inactive) in the test on NCI-H226. Also, the GI50 in the test on NCI/ADR-RES was 21.4 µM (inactive); in the test on RPMI-8226 it was 19.4 µM (inactive); in the test with SF-268, 21.4 µM (inactive); in the test with SK-MEL-5, 20.9 µM (inactive); in the test on SNB-19, 12.8 µM (inactive); in the test on UACC-62, 27.9 µM (inactive).

Consider `CN(C)CCCNC(CC#N)CCC#N` (configuration not stated), for which the GI50 in the test with A498 was > 10 µM (inactive); in the test on COLO 205, > 10 µM (inactive); with DU-145, > 10 µM (inactive); in the test with HCT-116 it was > 10 µM (inactive); with HCT-15, > 10 µM; in the test with HOP-92, > 10 µM (inactive). The GI50 with HT-29, with IGROV-1, in the test on KM12, with MDA-MB-435, in the test on MOLT-4 and in the test with Malme-3M was > 10 µM (inactive) throughout. The GI50 with NCI-H226, in the test with NCI/ADR-RES, in the test on SF-268, in the test with SK-MEL-5, with SNB-19 and in the test on UACC-62 was > 10 µM (inactive) in each case.

Turning to `Cc1cccc2c(N)c3cccc(C(=O)NCC[N+](C)(C)Cc4ccc(S(C)(=O)=O)cc4)c3nc12`, the GI50 is 10.8 µM (inactive) in the test on A498; 47.1 µM (inactive) in the test on COLO 205; 50 µM (inactive) in the test with DU-145; 36.5 µM (inactive) in the test with HCT-116; > 100 µM in the test on HCT-15; 70 µM (inactive) in the test with HOP-92. Moreover, the GI50 is 36.6 µM (inactive) in the test on HT-29; 27.9 µM (inactive) in the test with IGROV-1; 64.6 µM (inactive) with KM12; > 100 µM (inactive) in the test on MDA-MB-435; 2.02 µM (inactive) in the test with MOLT-4; 38.5 µM (inactive) in the test with Malme-3M. The GI50 in the test with NCI-H226 was 98.2 µM (inactive); in the test on NCI/ADR-RES, > 100 µM (inactive); in the test on RPMI-8226 it was 5.61 µM (inactive); in the test on SF-268 it was 25.1 µM (inactive); in the test on SK-MEL-5 it was 70.5 µM (inactive); in the test with SNB-19, 18.7 µM (inactive). Also, the GI50 in the test on UACC-62 was > 95.9 µM (inactive).

For `O=C(O)CC(NC(=O)/C(=C/c1ccccc1)NC(=O)c1ccccc1)C(=O)O` (configuration not stated), the GI50 is > 100 µM (inactive) in the test with A498; > 100 µM (inactive) in the test with COLO 205; > 100 µM (inactive) in the test on DU-145; > 100 µM (inactive) with HCT-116; > 100 µM with HCT-15; > 100 µM (inactive) with HOP-92. The GI50 with HT-29, with IGROV-1, in the test with KM12, in the test on MDA-MB-435, in the test with MOLT-4 and with Malme-3M was > 100 µM (inactive) in each case. Besides, the GI50 with NCI-H226, in the test on NCI/ADR-RES, in the test on RPMI-8226, in the test on SF-268, in the test with SK-MEL-5 and with SNB-19 was > 100 µM (inactive) throughout. In addition, in the test on UACC-62, the GI50 was > 100 µM (inactive).

With `COc1ccc(/C=C/C(=O)CCN2CCN(CCC(=O)/C=C/c3ccc(OC)cc3)CC2)cc1`, the GI50 in the test with A498 is < 0.01 µM (active); in the test on COLO 205 it was 2.01 µM (inactive); in the test on DU-145, 26.2 µM (inactive); with HCT-116, 3.29 µM (inactive); in the test with HCT-15, 8.53 µM; in the test with HOP-92, 18.6 µM (inactive). In addition, the GI50 in the test on HT-29 was 10.4 µM (inactive); in the test with IGROV-1, 11.5 µM (inactive); in the test with KM12, 10.7 µM (inactive); in the test with MDA-MB-435, 9.35 µM (inactive); in the test on MOLT-4 it was 6.87 µM (inactive); with Malme-3M, 18.7 µM (inactive). Besides, the GI50 with NCI-H226 was 22.3 µM (inactive); in the test with NCI/ADR-RES, 36.4 µM (inactive); with SF-268, 17.4 µM (inactive); in the test with SK-MEL-5, 18.1 µM (inactive); with SNB-19 it was 43.6 µM (inactive); with UACC-62, 13.4 µM (inactive).

For the compound `COC(=O)C(CNC(=O)/C=C/c1ccc(OC(C)=O)c(OC(C)=O)c1)NC(=O)/C=C/c1ccc(OC(C)=O)c(OC(C)=O)c1` (configuration not stated), the GI50 was > 100 µM (inactive) with A498; > 100 µM (inactive) in the test with COLO 205; > 100 µM (inactive) in the test on DU-145; > 100 µM (inactive) in the test on HCT-116; > 100 µM with HCT-15; > 100 µM (inactive) with HOP-92. Further, the GI50 in the test with HT-29 was > 100 µM (inactive); in the test on IGROV-1, > 100 µM (inactive); with KM12 it was > 100 µM (inactive); in the test with MDA-MB-435 it was > 100 µM (inactive); in the test on MOLT-4, 30 µM (inactive); with Malme-3M, > 100 µM (inactive). In addition, the GI50 was > 100 µM (inactive) with NCI-H226; > 100 µM (inactive) in the test with RPMI-8226; > 100 µM (inactive) in the test with SF-268; > 100 µM (inactive) in the test with SK-MEL-5; 93.3 µM (inactive) in the test with SNB-19; 92.9 µM (inactive) in the test on SR. In the test with UACC-62, the GI50 was > 100 µM (inactive).

As to `N#Cc1c(-c2ccccc2)[nH]c(=O)n(C2OC(CO)C(O)C(O)C2O)c1=O` (configuration not stated), the GI50 in the test with A498 is > 100 µM (inactive); in the test on COLO 205, > 100 µM (inactive); in the test on DU-145 it was > 100 µM (inactive); in the test with HCT-116 it was > 100 µM (inactive); with HCT-15, > 100 µM; in the test with HOP-92, > 100 µM (inactive). For the same compound, the GI50 in the test with HT-29, with KM12, with MDA-MB-435, in the test with MOLT-4, in the test with NCI/ADR-RES and in the test on RPMI-8226 was > 100 µM (inactive) each time. Moreover, the GI50 with SF-268, in the test on SK-MEL-5, in the test with SNB-19 and in the test with UACC-62 was > 100 µM (inactive) throughout.

For `CCCCCCCCCCCCCCCC(=O)Nc1ccn(C2CCC(COP(=O)(O)OCC3OC(n4cc(F)c(=O)[nH]c4=O)CC3OC(C)=O)O2)c(=O)n1` (configuration not stated), the GI50 was 11.3 µM (inactive) in the test on A498; 13.1 µM (inactive) in the test on COLO 205; 9.25 µM (inactive) in the test on DU-145; 8.04 µM (inactive) with HCT-116; 24.9 µM with HCT-15; 5.62 µM (inactive) in the test with HOP-92. The GI50 was 11.2 µM (inactive) with HT-29; 20.5 µM (inactive) with IGROV-1; 16.6 µM (inactive) in the test on KM12; 15.5 µM (inactive) in the test with MDA-MB-435; 9.31 µM (inactive) in the test on MOLT-4; 15.6 µM (inactive) with Malme-3M. Also, the GI50 in the test with NCI-H226 is 30 µM (inactive); in the test on NCI/ADR-RES, 16.7 µM (inactive); in the test on RPMI-8226 it was 2.88 µM (inactive); in the test with SF-268 it was 1.45 µM (inactive); in the test on SK-MEL-5, 13.5 µM (inactive); in the test with SNB-19 it was 3.66 µM (inactive). The GI50 with UACC-62 is 10.7 µM (inactive).

Regarding `CC/C=N\N1C(N)=C(C#N)C(C#N)(C#N)C1CC` (configuration not stated), the GI50 with A498 is > 100 µM (inactive); in the test with COLO 205, > 100 µM (inactive); with DU-145, > 100 µM (inactive); in the test with HCT-116, 10.8 µM (inactive); in the test with HCT-15, 54.2 µM; in the test with HT-29, 28.8 µM (inactive). For the same compound, the GI50 was 63.1 µM (inactive) with IGROV-1; > 100 µM (inactive) with KM12; 50.6 µM (inactive) in the test with MDA-MB-435; 39 µM (inactive) in the test with MOLT-4; > 100 µM (inactive) in the test on Malme-3M; > 100 µM (inactive) in the test with NCI-H226. Further, the GI50 in the test on NCI/ADR-RES was 92 µM (inactive); in the test with RPMI-8226 it was 83 µM (inactive); in the test on SF-268, > 100 µM (inactive); with SK-MEL-5 it was 53.1 µM (inactive); in the test with SNB-19 it was > 100 µM (inactive); in the test on UACC-62, 59.4 µM (inactive).

As to `CC1=C(N2CC2)C(=O)c2nc3n(c2C1=O)CCC3O` (configuration not stated), the GI50 with A498 was 0.205 µM (active); in the test on COLO 205, 0.41 µM (active); in the test with DU-145, 0.0111 µM (active); in the test with HCT-116, 0.193 µM (active); with HCT-15 it was 13.6 µM; with HOP-92 it was 2.23 µM (inactive). Further, the GI50 in the test on HT-29 was 0.973 µM (active); in the test with IGROV-1 it was 0.461 µM (active); in the test with KM12, 0.233 µM (active); in the test on MDA-MB-435, 0.0188 µM (active); in the test on MOLT-4, 0.912 µM (active); with Malme-3M, 0.176 µM (active). The GI50 in the test with NCI-H226 is 0.697 µM (active); with RPMI-8226 it was 0.472 µM (active); in the test on SF-268, 0.104 µM (active); with SK-MEL-5 it was 0.0216 µM (active); in the test on SNB-19, 0.269 µM (active); in the test on SR, 2.25 µM (inactive). Also, the concentration for 50% growth inhibition (GI50) in the test on UACC-62 is 0.168 µM (active).

Regarding `COc1ccc(/C=C2\CN(C)CC3C2=NN(c2ccccc2)C3c2ccc(OC)cc2)cc1` (configuration not stated), the GI50 in the test with A498 was 33.8 µM (inactive); in the test with COLO 205, > 100 µM (inactive); in the test with DU-145, > 100 µM (inactive); with HCT-116 it was > 100 µM (inactive); in the test on HCT-15, > 100 µM; in the test with HOP-92 it was 28 µM (inactive). In addition, the GI50 was > 100 µM (inactive) with HT-29; > 100 µM (inactive) in the test on IGROV-1; > 100 µM (inactive) in the test on KM12; > 100 µM (inactive) with MDA-MB-435; > 100 µM (inactive) in the test on MOLT-4; 41.7 µM (inactive) in the test on Malme-3M. Besides, the GI50 with NCI-H226 was > 100 µM (inactive); in the test on NCI/ADR-RES, > 100 µM (inactive); with RPMI-8226 it was > 100 µM (inactive); with SF-268, > 100 µM (inactive); with SK-MEL-5, > 100 µM (inactive); in the test on SNB-19 it was 27.2 µM (inactive). In the test with UACC-62, the GI50 was 75 µM (inactive).
